Assay results taken from ChEMBL document CHEMBL1201862, “PubChem BioAssay data set” (2004).
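96-well plates; 48 h exposure; 5 concentrations. Endpoints by linear interpolation between flanking doses. Not reached: highest tested concentration assigned. GI50: concentration for 50% inhibition of growth.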 The source made the active and inactive calls. Rule as the data show it: active = GI50 up to about 1.1 µM and inactive = higher.

Assays:
Experiment in all cases: growth of human tumour cells (NCI), 48 h
OVCAR-3 = tested on: OVCAR-3
BT-549 = tested on: BT-549
SK-OV-3 = tested on: SK-OV-3
M14 = tested on: M14
786-0 = tested on: 786-0
MCF7 = tested on: MCF7
SNB-19 = tested on: SNB-19
MOLT-4 = tested on: MOLT-4
MDA-MB-435 = tested on: MDA-MB-435
SF-268 = tested on: SF-268
T47D = tested on: T47D
NCI-H460 = tested on: NCI-H460
COLO 205 = tested on: COLO 205
K562 = tested on: K562
PC-3 = tested on: PC-3
Malme-3M = tested on: Malme-3M
SF-539 = tested on: SF-539
CAKI-1 = tested on: CAKI-1
HOP-92 = tested on: HOP-92

Measured: GI50

O=C(O)CCC/N=C(\C(=N\CCCC(=O)O)c1ccccc1)c1ccccc1
inactive: OVCAR-3 > 100 µM | BT-549 > 100 µM | SK-OV-3 > 100 µM | M14 > 100 µM | 786-0 > 100 µM | MCF7 > 100 µM | SNB-19 > 100 µM | MOLT-4 > 100 µM | MDA-MB-435 > 100 µM | SF-268 > 100 µM | T47D > 100 µM | NCI-H460 > 100 µM | COLO 205 > 100 µM | K562 > 100 µM | PC-3 > 100 µM

CCN(CC)Cc1cc(Nc2ccnc3ccc4nn(C)nc4c23)ccc1O
inactive: OVCAR-3 12.3 µM | SK-OV-3 18.5 µM | M14 14.3 µM | 786-0 11.8 µM | SNB-19 28 µM | MOLT-4 6.58 µM | SF-268 13.6 µM | NCI-H460 5.64 µM | COLO 205 5.02 µM | Malme-3M 16.9 µM | SF-539 13.6 µM | K562 > 100 µM | CAKI-1 28.8 µM

CC(=O)c1c2c(cc3c1CC1(Cc4ccccc4C1=O)C3)CCC2 (stereo not given)
inactive: OVCAR-3 15.1 µM | SK-OV-3 48.9 µM | M14 27.3 µM | 786-0 22.3 µM | MCF7 17.1 µM | SNB-19 45.2 µM | MOLT-4 10.6 µM | MDA-MB-435 22.3 µM | SF-268 37.9 µM | HOP-92 12.2 µM | T47D 6.87 µM | NCI-H460 28.6 µM | COLO 205 14.3 µM | Malme-3M 16.8 µM | SF-539 31.8 µM | K562 16.3 µM | PC-3 41.3 µM | CAKI-1 8.55 µM

C[C@]12CCC3[C@@H](CC[C@@H]4c5nonc5CC[C@]34C)C1C/C(=N/O)C2=O (stereo not given in full)
inactive: OVCAR-3 39.7 µM | SK-OV-3 38.8 µM | M14 63.5 µM | 786-0 > 100 µM | SNB-19 > 100 µM | MOLT-4 59.7 µM | SF-268 11.2 µM | HOP-92 46.5 µM | NCI-H460 > 100 µM | COLO 205 > 100 µM | Malme-3M > 100 µM | SF-539 71 µM | K562 > 100 µM | CAKI-1 4.34 µM

Cc1ccc(-n2cnc(C(=N)C#N)c2N)cc1
inactive: OVCAR-3 > 100 µM | BT-549 > 100 µM | SK-OV-3 > 100 µM | M14 > 100 µM | 786-0 > 100 µM | MCF7 > 100 µM | SNB-19 > 100 µM | MOLT-4 > 100 µM | MDA-MB-435 > 100 µM | SF-268 > 100 µM | T47D > 100 µM | NCI-H460 > 100 µM | COLO 205 > 100 µM | Malme-3M > 100 µM | SF-539 > 100 µM | K562 > 100 µM | PC-3 > 100 µM | CAKI-1 > 100 µM

C(=C\c1ccccc1)/C=N/c1ccc2c(c1)Cc1ccccc1-2
inactive: OVCAR-3 46 µM | BT-549 60.4 µM | M14 62.2 µM | 786-0 54.2 µM | SNB-19 61.4 µM | MOLT-4 31 µM | MDA-MB-435 58.1 µM | SF-268 38.9 µM | HOP-92 > 100 µM | T47D 76.7 µM | NCI-H460 58.1 µM | Malme-3M > 100 µM | K562 34.2 µM | PC-3 69 µM | CAKI-1 > 100 µM

O=c1[nH]nc(Nc2ccccc2)c2nnn(C3CCCCC3)c12
inactive: OVCAR-3 > 100 µM | BT-549 > 100 µM | M14 > 100 µM | 786-0 > 100 µM | MCF7 > 100 µM | SNB-19 > 100 µM | MOLT-4 > 100 µM | MDA-MB-435 > 100 µM | HOP-92 > 100 µM | NCI-H460 > 100 µM | COLO 205 > 100 µM | Malme-3M > 100 µM | K562 > 100 µM | PC-3 > 100 µM | CAKI-1 > 100 µM

O=C(NCCN1C(=O)CN=C(c2ccc(Cl)cc2)c2cc(Cl)ccc21)OCc1ccccc1
inactive: OVCAR-3 12.6 µM | BT-549 15.6 µM | SK-OV-3 52.2 µM | M14 16.4 µM | 786-0 14.7 µM | SNB-19 18.9 µM | MDA-MB-435 15.1 µM | SF-268 12.4 µM | HOP-92 14.7 µM | T47D 30.8 µM | NCI-H460 13.4 µM | COLO 205 19.8 µM | Malme-3M 16.8 µM | SF-539 18.9 µM | K562 5.06 µM | PC-3 11.5 µM | CAKI-1 14.2 µM
active: MOLT-4 0.255 µM

CN(C)CCOc1ccc2[nH]c(C(=O)N3CC(CCl)c4c3cc([N+](=O)[O-])c3ccccc43)cc2c1 (stereo not given)
inactive: OVCAR-3 1.87 µM | BT-549 2.3 µM | SK-OV-3 27.3 µM | M14 2.07 µM | 786-0 2.1 µM | MCF7 1.76 µM | SNB-19 2.36 µM | MOLT-4 1.29 µM | MDA-MB-435 2 µM | SF-268 1.71 µM | T47D 1.89 µM | NCI-H460 1.77 µM | COLO 205 3.25 µM | Malme-3M 1.94 µM | SF-539 1.69 µM | K562 1.79 µM | PC-3 2.78 µM | CAKI-1 2.79 µM

O=c1n(-c2ccccc2)c(=O)n2c(-c3ccccc3)c(-c3ccccc3)n12
inactive: OVCAR-3 > 100 µM | BT-549 > 100 µM | SK-OV-3 > 100 µM | M14 52.1 µM | 786-0 80.2 µM | MCF7 > 100 µM | SNB-19 > 100 µM | MOLT-4 37.4 µM | HOP-92 > 100 µM | NCI-H460 91 µM | COLO 205 91.6 µM | Malme-3M > 100 µM | SF-539 > 100 µM | K562 80.9 µM | PC-3 77.8 µM | CAKI-1 > 100 µM

O=C1/C(=C/c2ccc(Cl)cc2)N=C(c2ccccc2)N1c1nc2ccccc2s1
active: MOLT-4 0.548 µM
inactive: OVCAR-3 38.5 µM | SK-OV-3 > 100 µM | M14 69.8 µM | 786-0 > 100 µM | MCF7 40.1 µM | MDA-MB-435 53 µM | SF-268 38.4 µM | HOP-92 66.4 µM | T47D 46.8 µM | NCI-H460 57.4 µM | SF-539 > 100 µM | K562 26.4 µM | PC-3 29.9 µM | CAKI-1 58.9 µM

Cc1nc2c(O)cc3c4c(=O)n(C)c(=O)n(C)c4n(Cc4ccccc4)c3c2nc1C
inactive: SK-OV-3 17.1 µM | M14 17.6 µM | 786-0 17 µM | MCF7 15.8 µM | SNB-19 18.6 µM | MOLT-4 24.5 µM | MDA-MB-435 17.4 µM | SF-268 17.6 µM | HOP-92 13.8 µM | NCI-H460 45.8 µM | COLO 205 13.3 µM | Malme-3M 18.7 µM | SF-539 16 µM | K562 34.1 µM | PC-3 16.7 µM

COc1ccc2oc(=N)c(C(N)=O)cc2c1
inactive: OVCAR-3 37.4 µM | BT-549 57.7 µM | SK-OV-3 > 100 µM | M14 87.3 µM | 786-0 53.5 µM | SNB-19 38.4 µM | MOLT-4 65.9 µM | MDA-MB-435 49.4 µM | SF-268 44.3 µM | HOP-92 > 100 µM | T47D 32 µM | NCI-H460 39.2 µM | COLO 205 49 µM | SF-539 66.5 µM | K562 > 100 µM | PC-3 37.9 µM | CAKI-1 50.6 µM

O=c1[nH]nc(Cc2ccccc2)n1Nc1ccccc1
inactive: OVCAR-3 > 100 µM | BT-549 > 100 µM | 786-0 > 100 µM | MCF7 > 100 µM | MOLT-4 > 100 µM | MDA-MB-435 > 100 µM | SF-268 52 µM | T47D > 10 µM | NCI-H460 > 100 µM | COLO 205 > 100 µM | Malme-3M > 100 µM | SF-539 > 100 µM | K562 > 100 µM | PC-3 > 100 µM | CAKI-1 46.3 µM

O=[N+]([O-])/C(C(Cl)=C(Cl)Cl)=C(/Cl)Sc1ccccc1
active: MOLT-4 0.361 µM | K562 0.59 µM
inactive: OVCAR-3 2.05 µM | SK-OV-3 20.1 µM | M14 1.82 µM | 786-0 1.31 µM | MCF7 1.43 µM | SNB-19 17.7 µM | MDA-MB-435 1.86 µM | SF-268 2.29 µM | HOP-92 2.05 µM | T47D 3.03 µM | NCI-H460 17.1 µM | COLO 205 1.23 µM | Malme-3M 1.6 µM | SF-539 1.99 µM | PC-3 2.26 µM | CAKI-1 2.51 µM

O=C(OCCN=c1c2ccccc2ccc2ccccc12)c1ccccc1
inactive: OVCAR-3 > 100 µM | BT-549 42.2 µM | SK-OV-3 > 100 µM | M14 > 100 µM | 786-0 87.7 µM | MCF7 > 100 µM | SNB-19 40.5 µM | MOLT-4 > 100 µM | MDA-MB-435 > 100 µM | SF-268 > 100 µM | HOP-92 75 µM | NCI-H460 63.2 µM | COLO 205 92.5 µM | Malme-3M > 100 µM | SF-539 50.1 µM | K562 38 µM | PC-3 67.3 µM | CAKI-1 83.4 µM

Clc1ccc(OCc2nnc(CCCCCCCCc3nnc(COc4ccc(Cl)cc4)o3)o2)cc1
inactive: OVCAR-3 > 100 µM | BT-549 > 100 µM | SK-OV-3 57.8 µM | M14 89.7 µM | 786-0 31.8 µM | MCF7 28.2 µM | SNB-19 34.1 µM | MOLT-4 14.8 µM | MDA-MB-435 > 100 µM | SF-268 32.3 µM | HOP-92 31.7 µM | NCI-H460 > 100 µM | COLO 205 > 100 µM | Malme-3M 3.58 µM | K562 48.1 µM | PC-3 > 100 µM | CAKI-1 39.7 µM
